This passage reports Ki results from BindingDB's records for patent US12384772 (Vivoryon Therapeutics, 2025).

Structures are written as SMILES.

The target of assay [1] is T1, Glutaminyl-peptide cyclotransferase (Homo sapiens, UniProt Q16769). In words: Inhibition Assay (pH 6). How it is done:
(§1) 10 mM compound stock solutions were prepared in DMSO. For IC50 determination compound stocks were serially diluted (1:3) in DMSO.All measurements were performed with an EnSpire Perkin Elmer multimode reader using glutaminyl-7-amino-4-methylcoumarin (H-Gin-AMC) as substrate and recombinant pyroglutamyl aminopeptidase (pGAP) as auxiliary enzyme. Reactions were carried out at ambient temperature in black 96-well half area microplates. Each sample consisted of 1 μl test compound solution or solvent (DMSO) and 49 μl QC appropriately diluted in assay buffer (50 mM Tris/HCl, pH 8.0 or 50 mM MES buffer, pH=6.0). After a 10 min preincubation at ambient temperature the enzyme reaction was started by adding 50 μl of Gln-AMC-substrate/pGAP mixture in assay buffer. Final substrate concentrations were 50 and 200 μM for measurement at pH 8.0 or 6.0, respectively. Release of flourogenic AMC were recorded at excitation/emission wavelengths of 380/460 nm. Initial velocity of the enzyme reaction was calculated by linear regression of the first 10 data points using the Enspire Manager software. Final evaluation and calculation of IC50s were performed using GraphPad Prism software.

The target of assay [2] is T1, Glutaminyl-peptide cyclotransferase. In words: Inhibition Assay (pH 8.0). How it is done:
as §1

T1 sequence (Q16769 whole entry): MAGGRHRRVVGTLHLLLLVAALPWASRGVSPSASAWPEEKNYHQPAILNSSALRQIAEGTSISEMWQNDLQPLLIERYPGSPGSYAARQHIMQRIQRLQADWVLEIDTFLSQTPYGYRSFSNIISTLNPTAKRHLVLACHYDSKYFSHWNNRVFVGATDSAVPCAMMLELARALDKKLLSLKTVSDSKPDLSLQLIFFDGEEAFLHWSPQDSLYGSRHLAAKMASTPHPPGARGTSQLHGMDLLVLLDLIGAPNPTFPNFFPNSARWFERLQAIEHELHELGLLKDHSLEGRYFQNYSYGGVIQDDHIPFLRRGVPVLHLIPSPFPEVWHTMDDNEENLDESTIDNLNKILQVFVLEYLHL

The term Ki denotes the equilibrium dissociation constant of an inhibitor or competing ligand from its target. Consider `CS(=O)(=NCc1ccc2[nH]cnc2c1)c1ccc(F)cc1` (configuration not stated) [US12384772, Compound 1285], for which the Ki is 8.05 µM in assay [1] and 5.18 µM in assay [2].
